Source: patent US6576619B2 (CV Therapeutics, Inc., priority 1999, dated 2003)

Legend:
[1] = test system: Rat Heart Rate; assay: Effect on rat heart rate (telemetry) after administration of pro-drug; format: in vivo, Sprague Dawley rats; parameters: key to Effect on Heart Rate: +++: Heart Rate decreased by 100-150 BPM; ++: Heart Rate decreased by 50-100 BPM; +: Heart rate decreased by 50 BPM; =/−: No reproducible effect on Heart Rate.; −: No effect on Heart Rate; conditions: for Effect on Heart Rate: rat, oral gavage, 500 μGram dose, average of 3-6 rats
Procedure: Adult male and female Sprague Dawley rats were implanted with transducer/emitter modules of the Data Science Telemetry system (St. Paul, Minn.) to allow continuous monitoring of heart rate (HR). At the start of the experiment, basal HR was determine for 1 hour prior to gavage. A 500 μg dose of compounds prepared according to Examples 1-4 was administered to by oral gavage. The compounds were each prepared as stock solutions in DMSO and diluted at least 1:1000 in water for gavage. Following administration, HR was determined every five minutes. In these experiments, 3-6 rats were used to test each compounds. An average of the HR results are reported in Table 1, below and in FIGS. 1A, 2A, 3A and 4A.
Compound 1, identified above is an A1 Agonist. […] Thus, this in vivo assay is a measure of effect on heart rate following the oral administration of a pro-drug of a potent adenosine A1 agonist. The plasma concentrations of compound 1 was determined over time by cannulating the jugular of a separate specimen for subsequent blood collection. After a 24 hour recovery period, a pre-dose baseline HR as determined followed by gavage or IP injection of a compound being tested. Blood samples were taken and the concentration of compound 1 in the plasma was determined using LC/MS/MS methodologies.

[2] = test system: Rat Heart Rate; assay: as above; format: in vivo, Sprague Dawley rats; conditions: for decrease in heart rate: oral gavage, dose of 0.5 mg/kg
[3] = molecular target: T1, adenosine A1 (Homo sapiens, UniProt P30542); conditions: from Snowdy et al. abstract and WO 98/08855; cited from earlier work
T1 sequence (P30542 1-326): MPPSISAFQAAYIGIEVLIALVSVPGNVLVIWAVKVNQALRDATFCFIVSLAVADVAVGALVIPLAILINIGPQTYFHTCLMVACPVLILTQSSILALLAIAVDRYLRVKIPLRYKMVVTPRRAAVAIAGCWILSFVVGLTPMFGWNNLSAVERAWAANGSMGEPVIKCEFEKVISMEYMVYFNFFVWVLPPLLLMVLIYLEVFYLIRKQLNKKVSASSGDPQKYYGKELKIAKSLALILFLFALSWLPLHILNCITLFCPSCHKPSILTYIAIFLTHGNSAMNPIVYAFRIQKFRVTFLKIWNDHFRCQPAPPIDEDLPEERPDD

In the case of CC(=O)O[C@@H]1[C@@H](COC(=O)C2CCCC2)OC(n2cnc3c(N[C@@H]4CCOC4)ncnc32)[C@@H]1OC(C)=O (stereo partly drawn) [Compound 18, 2-{6-[((3R)oxolan-3-yl)amino]purin-9-yl}(3R, 4R, 5R)-4-acetyloxy-5-(cyclopentylcarbonyloxymethyl)oxolan-3-yl acetate], the “Effect on Heart Rate” value [1] is reported as “+ (Heart rate decreased by 50 BPM)”.
In the case of CC(=O)OC[C@H]1OC(n2cnc3c(N[C@@H]4CCOC4)ncnc32)[C@H](OC(=O)C(C)C)[C@@H]1OC(=O)C(C)C (stereo partly drawn) [Compound 15, 2-{6-[((3R)oxolan-3-yl)amino]purin-9-yl}(3R, 4R, 5R)-5-(acetyloxymethyl)-4-(2-methylpropanoyloxy)oxolan-3-yl 2-methylpropanoate], the “decrease in heart rate” value ([2]; rats) is reported as 100-150 beats per minute and the “Effect on Heart Rate” value [1] is reported as “+++ (Heart Rate decreased by 100-150 BPM)”.
For CC(=O)O[C@@H]1[C@@H](COC(=O)C(C)C)OC(n2cnc3c(N[C@@H]4CCOC4)ncnc32)[C@@H]1OC(C)=O (stereo partly drawn) [Compound 19, (5-{6-[((3R)oxolan-3-yl)amino]purin-9-yl}(2R, 3R, 4R)-3,4-diacetyloxyoxolan-2-yl)methyl 2-methylpropanoate], the “decrease in heart rate” value ([2]; rats) was 100-150 beats per minute and the “Effect on Heart Rate” value [1] was “+++ (Heart Rate decreased by 100-150 BPM)”.
For O=C(Cc1ccccc1)OC[C@H]1OC(n2cnc3c(N[C@@H]4CCOC4)ncnc32)[C@H](OC(=O)Cc2ccccc2)[C@@H]1OC(=O)Cc1ccccc1 (stereo partly drawn) [Compound 13, (5-{6-[((3R)oxolan-3-yl)amino]purin-9-yl}(2R, 3R, 4R)-3,4-bis(2-phenylethanoyloxy)oxolan-2-yl)methyl 2-phenylethananoate], the “Effect on Heart Rate” value [1] was “−”.
For OC[C@H]1O[C@@H](n2cnc3c(N[C@@H]4CCOC4)ncnc32)[C@H](O)[C@@H]1O [Compound 1], the “adenosine A1 agonist activity” value [3] is listed as “potent, selective adenosine A1 agonist” and the “effect on heart rate of the sinus rhythm” value ([2]; rat, IP, 0.025 mg) is listed as “lowers the heart rate”.
For CC(C)C(=O)OC[C@H]1OC(n2cnc3c(N[C@@H]4CCOC4)ncnc32)[C@H](OC(=O)C(C)C)[C@@H]1OC(=O)C(C)C (stereo partly drawn) [Compound 6, (5-{6-[((3R)oxolan-3-yl)amino]purin-9-yl}(2R, 3R, 4R)-3,4-bis(2-methylpropanoyloxy)oxolan-2-yl)methyl 2-methylpropanoate], the “Effect on Heart Rate” value [1] was “++ (Heart Rate decreased by 50-100 BPM)”.
With NCC(=O)OC[C@H]1OC(n2cnc3c(N[C@@H]4CCOC4)ncnc32)[C@H](OC(=O)CN)[C@@H]1OC(=O)CN (stereo partly drawn) [Compound 12, 2-{6[((3R)oxolan-3-yl)amino]purin-9-yl}(3R, 4R, 5R)-4-(2-aminoacetyloxy)-5-[(2-aminoacetyloxy)methyl]oxolan-3-yl 2-aminoacetate] the “Effect on Heart Rate” value [1] was “−”.
For CC(C)C(=O)OC[C@H]1OC(n2cnc3c(NC4CCOC4)ncnc32)[C@H](OC(=O)C2CCCC2)[C@@H]1OC(=O)C1CCCC1 (stereo partly shown) [Compound 20], the “Effect on Heart Rate” value [1] was “−”.
For CC(=O)O[C@@H]1[C@@H](CO)OC(n2cnc3c(N[C@@H]4CCOC4)ncnc32)[C@@H]1OC(C)=O (stereo partly drawn) [Compound 31, 2-{6-[((3R)oxolan-3-yl)amino]purin-9-yl}(3R, 4R, 5R)-4-acetyloxy-5-(hydroxymethyl)oxolan-3-yl acetate], the “activity upon oral dosing in rats” value ([1]; rats, oral dosing, compared with the triple pro-drugs (Table 1)) was “lower activity”.
For CC(=O)OC[C@H]1OC(n2cnc3c(NC4CCOC4)ncnc32)[C@H](OC(=O)C2CCCC2)[C@@H]1OC(=O)C1CCCC1 (stereo partly shown) [Compound 16], the “Effect on Heart Rate” value [1] was “+ (Heart rate decreased by 50 BPM)”.
For CCC(=O)OC[C@H]1OC(n2cnc3c(N[C@@H]4CCOC4)ncnc32)[C@H](OC(=O)CC)[C@@H]1OC(=O)CC (stereo partly drawn) [Compound 7, (2-{6-[((3R)oxolan-3-yl)amino]purin-9-yl}(3R, 4R, 5R)-4-propanoyloxy-5-(propanoyloxymethyl)oxolan-3-yl propanoate], the “Effect on Heart Rate” value [1] was “+ (Heart rate decreased by 50 BPM)”.
With O=C(COCc1ccccc1)OC[C@H]1OC(n2cnc3c(N[C@@H]4CCOC4)ncnc32)[C@H](OC(=O)COCc2ccccc2)[C@@H]1OC(=O)COCc1ccccc1 (stereo partly drawn) [Compound 10, (5-{6-[((3R)oxolan-3-yl)amino]purin-9-yl}(2R, 3R, 4R)-3,4-bis[2-(phenylmethoxy)acetyloxy]oxolan-2-yl)methyl 2-(phenylmethoxy)acetate] the “Effect on Heart Rate” value [1] was “+ (Heart rate decreased by 50 BPM)”.
In the case of CC(=O)OC[C@H]1OC(n2cnc3c(N[C@@H]4CCOC4)ncnc32)[C@H](OC(C)=O)[C@@H]1OC(C)=O (stereo partly drawn) [Compound 2, (5-{6-[((3R)oxolan-3-yl)amino]purin-9-yl}(2R, 3R, 4R)-3,4-diacetyloxyoxolan-2-yl)methyl acetate], the “reversibility of effect on heart rate by theophylline” value ([2]; rats, oral gavage 0.5 mg/kg, then theophylline 7.5 mg/kg) is reported as “reversible”, the “decrease in heart rate” value ([2]; rats) is reported as 100-150 beats per minute and the “Effect on Heart Rate” value [1] is reported as “+++ (Heart Rate decreased by 100-150 BPM)”.
In the case of CC(=O)O[C@@H]1[C@H](OC(C)=O)[C@@H](COC(=O)[C@@H](N)C(C)C)O[C@H]1n1cnc2c(N[C@@H]3CCOC3)ncnc21 [Compound 21, (5-{6-[((3R)oxolan-3-yl)amino]purin-9-yl}(2R, 3R, 4R)-3,4-diacetyloxyoxolan-2-yl)methyl (2S)-2-amino-3-methylbutanoate], the “Effect on Heart Rate” value [1] is reported as “+ (Heart rate decreased by 50 BPM)”.
With O=C(OC[C@H]1OC(n2cnc3c(N[C@@H]4CCOC4)ncnc32)[C@H](OC(=O)C2CCCC2)[C@@H]1OC(=O)C1CCCC1)C1CCCC1 (stereo partly drawn) [Compound 8, 2-{6-[((3R)oxolan-3-yl)amino]purin-9-yl}(3R, 4R, 5R)-4-cyclopentylcarbonyloxy-5-(cyclopentylcarbonyloxymethyl)oxolan-3-yl cyclopentanecarboxylate] the “decrease in heart rate” value ([2]; rats) was 100-150 beats per minute and the “Effect on Heart Rate” value [1] was “+++ (Heart Rate decreased by 100-150 BPM)”.
With CC(=O)OC[C@H]1OC(n2cnc3c(N[C@@H]4CCOC4)ncnc32)[C@H](O)[C@@H]1O (stereo partly drawn) [Compound 34, (5-{6-[((3R)oxolan-3-yl)amino]purin-9-yl}(3S, 2R, 4R)-3,4-dihydroxyoxolan-2-yl)methyl acetate] the “Effect on Heart Rate” value [1] was “−”.
With CC(C)C(=O)O[C@@H]1[C@@H](COC(=O)C2CCCC2)OC(n2cnc3c(N[C@@H]4CCOC4)ncnc32)[C@@H]1OC(=O)C(C)C (stereo partly drawn) [Compound 17, 2-{6-[((3R)oxolan-3-yl)amino]purin-9-yl}(3R, 4R, 5R)-5-(cyclopentylcarbonyloxymethyl)-4-(2-methylpropanoyloxy)oxolan-3-yl 2-methylpropanoate] the “Effect on Heart Rate” value [1] was “−”.
For CC(C)[C@H](N)C(=O)OC[C@H]1O[C@@H](n2cnc3c(N[C@@H]4CCOC4)ncnc32)[C@H](O)[C@@H]1O [Compound 28, (5-{6-[((3R)oxolan-3-yl)amino]purin-9-yl}(2R, 3S, 4R)-3,4-dihydroxyoxolan-2-yl)methyl (2S)-2-amino-3-methylbutanoate], the “Effect on Heart Rate” value [1] was “−”.
For CCCC(=O)OC[C@H]1OC(n2cnc3c(N[C@@H]4CCOC4)ncnc32)[C@H](OC(=O)CCC)[C@@H]1OC(=O)CCC (stereo partly drawn) [Compound 4, (5-{6-[((3R)oxolan-3-yl)amino]purin-9-yl}(2R, 3R, 4R)-3,4-dibutanoyloxyoxolan-2-yl)methyl butanoate], the “Effect on Heart Rate” value [1] was “+ (Heart rate decreased by 50 BPM)”.
With O=C(Cc1ccc([N+](=O)[O-])cc1)OC[C@H]1OC(n2cnc3c(N[C@@H]4CCOC4)ncnc32)[C@H](OC(=O)Cc2ccc([N+](=O)[O-])cc2)[C@@H]1OC(=O)Cc1ccc([N+](=O)[O-])cc1 (stereo partly shown) [Compound 11] the “Effect on Heart Rate” value [1] was “−”.
With O=C(OC[C@H]1OC(n2cnc3c(N[C@@H]4CCOC4)ncnc32)[C@H](OC(=O)c2cccnc2)[C@@H]1OC(=O)c1cccnc1)c1cccnc1 (stereo partly drawn) [Compound 14, (5-{6-[((3R)oxolan-3-yl)amino]purin-9-yl}(2R, 3R, 4R)-3,4-di(3-pyridylcarbonyloxy)oxolan-2-yl)methyl pyridine-3-carboxylate] the “Effect on Heart Rate” value [1] was “+ (Heart rate decreased by 50 BPM)”.
For CCOCC(=O)OC[C@H]1OC(n2cnc3c(N[C@@H]4CCOC4)ncnc32)[C@H](OC(=O)COCC)[C@@H]1OC(=O)COCC (stereo partly drawn) [Compound 9, 2-{6-[((3R)oxolan-3-yl)amino]purin-9-yl}(3R, 4R, 5R)-4-(2-ethoxyacetyloxy)-5-[(2-ethoxyacetyloxy)methyl]oxolan-3-yl 2-ethoxyacetate], the “Effect on Heart Rate” value [1] was “++ (Heart Rate decreased by 50-100 BPM)”.
